According to patent US20190091180A1, “DOSAGE REGIMEN FOR A S1P RECEPTOR AGONIST” (Novartis AG, priority 2008, published 2019):

Columns and labels:
[1] = test system: healthy subjects; settings: administration of 1.25 mg of FTY720; cited from earlier work
[2] = test system: healthy subjects; assay: Double-blind, placebo-controlled dose titration clinical study; heart rate by continuous telemetry; assay type: in vivo, human
Description: A single-center, double-blind, placebo-controlled, dose titration, once-daily, multiple-oral-dose clinical study in healthy subjects was conducted to evaluate the effect of a dosage regimen of FTY720 according to the present invention. A total of 36 subjects were randomly assigned to one of the three groups. Each subject participated in a screening period of maximal 21 days, a baseline period (Day −1), a 9-day dose-administration period, and clinical study completion assessments on Day 10. Subjects were assigned to one of the three groups (dose titration regimen group, placebo control group, or active control group) and received the once daily dose in a double-blinded manner (Table 1). In the dose titration group, increasing once daily doses of Compound A (FTY720), starting at 0.125 mg o.d. and ending at the maximal therapeutic dose of 1.25 mg o.d. were administered on days 1 to 9 of the study according to the schedule shown in Table 1 below. The placebo control group received placebo through out the duration of the study and the active control group received a once daily dose of 1.25 mg of FTY720 on days 1 to 9. [table] Pharmacodynamic and safety assessments are performed up to 24 hours post last dose. Heart rate is monitored via telemetry on Day −1 through Day 10, 24 hour after the last dosing. Heart rhythm is assessed via 24 hr continuous holter monitoring on Day −1, Day 1, and Day 9. For each dosing for each subject, the drug is administered as closely as practically possible to the time administered on Day −1. Safety assessments includes physical examinations, vital signs and body measurements, 12-lead ECG evaluations, standard clinical laboratory evaluations hematology, blood chemistry, urinalysis, adverse event and serious adverse event monitoring. Systolic and diastolic blood pressure and pulse are measured after the subject has rested quietly in the sitting position for at least 3 minutes. Blood pressure is measured at the same arm on each occasion. Standard 12-lead ECGs are recorded at Screening, baseline, 4 hours post-dose on Day 1 and Day 8, and at Study Completion. The variables recorded are: date and time of ECG, heart rate, PR interval, QT interval (uncorrected), QTcB, QRS duration. The overall interpretation is collected with a Yes/No statement to confirm if any clinically relevant abnormalities are present, which needs to be specified further. Subjects remain on continuous telemetry, starting before breakfast on Day −1 and proceeding throughout the administration period up to Day 10 (24 hour after the last dose). Over this ten day duration of continuous heart rate collection for each subject, one heart rate value is obtained every minute (‘minute unit heart rate’), representing the average heart rate value over that minute. The heart rate database for each subject contains approximately 14,400 data points (10 days×24 hr×60 min). 24-hour continuous Holter-ECG data are captured via a digital Holter monitor (12-lead, on Days −1, 1, 6, and 8), and transferred for interpretation and reporting. Holter monitoring starts approximately at 7:00 and the time of dose administration is regarded as the time “0 hours”. Holter “cuts” are derived from the dataset at 1 hour intervals starting from Day −1 and continuing for 24 hours or the end of the cleaned Holter monitoring dataset. Cardiac conduction intervals: arrhythmia monitoring includes the frequency and duration of sinus pauses (>2 sec and >3 sec) and atrio-ventricular blocks. Frequency and duration of atrial and ventricular ectopy and sinus rhythm are also recorded. The daily chronotropic effect is defined as the percent decrease in HRmin (minimum heart rate) between two consecutive days. It is calculated on days 1 to 9.

[3] = test system: multiple sclerosis; settings: humans; cited from earlier work

CCCCCCCCc1ccc(CCC(N)(CO)CO)cc1.Cl [FTY720, 2-amino-2-[2-(4-octylphenyl)ethyl]propane-1,3-diol]
decrease in heart rate [1]: approximately 8 beats/min (BPM) | additional decrease in daily average heart rate from Day 1 to Day 2 ([2]; active control group, 1.25 mg once daily, Day 1 to Day 2): approximately 3 BPM | decrease in daily average heart rate from Day -1 to Day 1 ([2]; active control group, 1.25 mg once daily, Day -1 to Day 1): approximately 8 BPM | gradual decrease in daily average heart rate per day ([2]; dose titration group 0.125/0.25/0.5/1.25 mg o.d., over the eight day course of the titration): 1-2 BPM per day | heart rate on initiation of 1.25 mg on Day 8 compared to the preceding days ([2]; dose titration group, Day 8, first 1.25 mg dose): does not result in dip in heart rate | daily minimum heart rates during the course of the study ([2]; dose titration regimen compared with 1.25 mg once daily group): improved daily minimum heart rates | negative chronotropic effect on Day 1 of treatment initiation ([2]; dose titration regimen versus 1.25 mg from Day 1): attenuates the negative chronotropic effect | efficacy in the treatment of multiple sclerosis [3]: has been demonstrated in humans
